# Results from PMC12323867 (RSC Medicinal Chemistry, 2025).
# Like-named read-outs stand apart in the source and are kept apart here.
# Columns and labels:
# [1] = biological target: T1, LSD1-HDAC1-CoREST complex (Homo sapiens, UniProt O60341); assay: LSD1 HRP-coupled demethylase assay, SP2509/SP2577 analogues; assay type: biochemical
# T1 construct: full length native LSD1 (UniProt ID: O60341); made in house; host or cells: HEK 293F cells (co-transfection, pcDNA3 vectors)
# Description: The analogues synthesised were then tested for their ability to inhibit LSD1 using purified LSD1-HDAC1-CoREST complex (Fig. 2B). We used an established fluorescent read out horseradish peroxidase (HRP) assay to monitor LSD1 enzymatic activity in the CoREST complex[8] (see ESI ^† for full details).
# (§1) 2. Supplementary Information: Biology
# (§2) 2.1. LSD-HDAC1-CoREST expression and purification
# (§3) Lysis Buffer (Buffer A) Wash Buffer (Buffer B)
# (§4) • 50 mM Tris/Cl pH 7.5 • 50 mM Tris/Cl pH 7.5
# (§5) • 50 mM Potassium Acetate • 50 mM Potassium Acetate […]
# (§6) Cleavage Buffer (Buffer C) Gel Filtration Buffer (Buffer D)
# (§7) • 50 mM Tris/Cl pH 7.5 Filtered at vacuum.
# (§8) • 50 mM Potassium Acetate • 50 mM Tris/Cl pH 7.5
# (§9) • 5 % v/v Glycerol • 50 mM Potassium Acetate
# (§10) • 0.5 mM tris(2- • 0.5 mM TCEP carboxyethyl)phosphine (TCEP)
# (§11) The CoREST ternary complex was comprised of full length native LSD1 (UniProt ID: O60341), full length HDAC1 (UniProt ID: Q13547) and N-terminally truncated RCOR1 (86-485aa) (UniProt ID:
# (§12) Q9UKL0). Protein constructs were cloned into pcDNA3 vector. The RCOR1 constructs contained an N-terminal (His)10(Flag)3 tag followed by a Tev protease cleavage site. The constructs for ternary complex were co-transfected into suspension-grow HEK 293F cells (Thermofisher Scientific) with polyethylenimine (PEI) (Sigma) and harvested after 48 hours. This section of the procedure was carried out as described previously in literature.11,12
# (§13) Cell pellets from 1.2 L culture were defrosted, and buffer A (30 mL) was added. The solution was sonicated (Soniprep 150) in an beaker of ice using a 9 mm probe at 10 ampules; operated with 10 […]
# 2.2. SP2509/SP2577 analogues LSD1 HRP-coupled demethylase assay protocol The commercial reagents for the assay were HRP and Amplex® Ultrared, which are available to purchase from ThermoFisher (31490) and Invitrogen (10737474), respectively. HRP was made up to 8 mg/mL stock solution in 1xPBS buffer, divided into 10 µL aliquots, snap-frozen in liquid nitrogen and stored at -80 °C. Amplex® Ultrared was made up to 10 mM solution in DMSO, divided into 20 µL aliquots and wrapped in foil, away from light and stored at -20 °C. For each assay experiment, CoREST complex was diluted to 500 nM in assay buffer (20 mM HEPES pH 7.5 and 50 mM NaCl).
# HRP was defrosted by diluting each aliquot in 90 µL 1xPBS solution, making a 0.8 mg/mL solution.
# Amplex® Ultrared was made up to 200 µM in assay buffer. HRP and Amplex® Ultrared were pre-mixed before addition to the plate. H3K4Me2 substrate (4 mM in deionised water) was diluted to 300 µM in assay buffer. All stocks were stored on ice during assay preparation.
# The assay was carried out using a ‘black well’ 96 well plate (Corning no. 3915) in a reaction volume of 100 μL. The final concentrations in the assay were as follows: 50 nM CoREST complex, 10 μM Amplex® UltraRed, 0.04 mg/mL HRP and 15 μM H3K4Me2 peptide substrate. The final DMSO concentration in each well was 1.1 %. Three wells of each experiments were designated ‘background controls’ and contained 85 μL assay buffer, premixed Amplex® UltraRed and HRP (10 µL) and H3K4Me peptide substrate (300 μM, 5 µL).
# A stock solution of inhibitor (1 -5 mM in DMSO) was subjected to an inhibitor dilution series, in Eppendorf tubes, in 100 % DMSO. Each new inhibitor stock (4 μL) was diluted in assay buffer (1 in 75) within a new Eppendorf set with assay buffer (20 mM HEPES pH 7.5 and 50 m M NaCl), ensuring the percentage of DMSO was consistent throughout the series. To each well of interest, Inhibitor in assay buffer (75 μL) was added, and CoREST complex (500 nM, 10 µL) was added thereafter. The plate was placed on a rocker and pre -incubated for 30 mins. To each well, premixed Amplex® UltraRed and HRP (10 µL) was added before H3K4Me 2 peptide substrate in assay buffer solution (300 μM, 5 µL) was added to the wall of the plate. The plate was covered in foil and spun down for one minute before being placed in the plate reader. The final percentage concentration of DMSO in […]
# [2] = tested on: H3K4me2 in HCT116 cells; assay: Histone methylation H3K4me2 by western blot; assay type: cell-based, human; settings: HCT116, 0.1–10 μM, 24 hours, H3K4me2 antibody
# Description: We next screened 25–33 and SP2509 over a concentration range of 0.1–10 μM in HCT116 cells (obtained from ATCC, CCL-247) and determined LSD1 abundance after 24 hours with an antibody for LSD1 (Fig. S4 ^†). […] Using the same conditions, we also determined the effects of SP2509, 25, 27, 28, 30 and 31 on histone H3 lysine 4 dimethyl (H3K4me2) a validated substrate for LSD1 using a specific antibody for H3K4me2 (Fig. S4 ^†).
# Compounds 39–41, 49, 52 and 54 were screened for LSD1 degradation in HCT116 cells using a specific antibody for LSD1. This was performed side-by-side with TCP. Compounds were tested at concentration ranges of 0.2–20 μM and LSD1 abundance was quantified at 24 hours (Fig. S5 ^†). 49, 52 and 54 were also evaluated at 48 and 72 hours. […] We also determined the effects of these compounds on the histone methyl marker H3K4me2 (Fig. S5 and S6 ^†).
# 2.5 Protocols for LSD1 degradation and histone methylation in HCT116 cells HCT116 human colon carcinoma cells were grown in Dulbecco’s Modified Eagle Medium (DMEM) supplemented with Fetal Bovine Serum (FBS, 10% final concentration) and 1x glutamine/penicillin/streptomycin. Cells were incubated at 37 °C and 5% CO2. Cells were treated with compounds (0.1-20 µM) with a final DMSO volume of 0.04%. DMSO (0.04%) treated and untreated (WT) cells were included as controls.
# HCT116 cells were seeded into six well plates (400000 cells per well) and after requisite compound treatment time (24h, 48h, 72h) cells were harvested and either snap-frozen in liquid nitrogen or lysed in lysis buffer (50mM Tris-HCl, 150 mM NaCl, 0.5% NP-40, 0.5% Triton X-100 + protease inhibitor) on ice for 30 mins. This was centrifuged (15000 rpm, 4 °C, 15 mins) and the supernatant collected.
# H2SO4 (0.4 M, equal volume) was added to the pellets for histone extraction and the tubes incubated overnight at 4 °C. Following this, the histone extract was centrifuged (15000 rpm, 4 °C, 15 mins) and the supernatant collected. Protein concentrations of whole cell extract were quantified via Bradford Assay using BIO-RAD Protein Assay Dye Reagent Concentrate.
# Western blots were run on NuPAGE 4-12% Bis-Tris gels, with 30 µg of protein (whole cell extract) or an equivalent volume of histone extract loaded per lane, with all extracts dyed with 4x NuPAGE LDS Sample Buffer. PageRuler Plus Prestained Ladder was used as a reference. Gel electrophoresis was carried out at 140 V for 60-90 mins, following which the proteins were transferred onto nitrocellulose membrane at 30 V for 60 mins. Membranes were blocked in LI-COR Intercept Blocking Buffer overnight at RT on a roller, following which the membrane was probed with primary antibodies for 1 h at RT. The membrane was washed with PBS + 0.1% Tween (3 x 10 mins), then incubated with secondary antibodies for 50 mins at RT. The membrane was washed again (PBS Tween 2 x 10 mins, PBS 1 x 10 mins) following which the blot was visualised with the Odyssey Infrared Imaging System. Image processing and quantification was performed with ImageStudio Lite. […]
# a-tubulin (mouse) – Sigma, t5168 (1:10000 dilution)
# [3] = biological target: T2, HDAC1-CoREST-LSD1 complex (Homo sapiens, UniProt O60341); assay: LSD1 HRP-coupled demethylase assay, TCP analogues; assay type: biochemical; settings: for LSD1 inhibition at 50 μM: single concentration 50 μM, compared to no compound treatment control
# T2 construct: full length native LSD1 (UniProt ID: O60341); made in house; host or cells: HEK 293F cells (co-transfection, pcDNA3 vectors)
# Description: We then evaluated LSD1 inhibition in the LSD1-HDAC1-CoREST complex using the established horseradish peroxidase (HRP) assay.[8]
# as §1, §2, §3, §4, §5, §6, §7, §8, §9, §10, §11, §12, §13
# Components and concentrations for the HRP-coupled demethylase assay […]
# The assay components are shown at their final concentrations per well in the table above. CoREST complex (HDAC 1/RCOR1/LSD1) was added to the assay buffer alongside either DMSO or the relevant inhibitor at the desired concentration on black-walled 96 well plates. Alongside this was another control, with DMSO but no CoREST or inhibitor. Plates were spun to 3000 rpm between each addition of a reagent. Plates were incubated at 20 °C for 30 mins, following which HRP/Amplex Ultrared (1:1 mixture) and peptide was added. Plates were spun, then read on an PerkinElmer 2030 Explorer plate reader, with excitation of 530 nm and […] of 590 nm, with 7 readings taken over […]
# Components, where bought in, are listed below:
# HRP – Pierce™ Horseradish Peroxidase, Invitrogen
# H3K4me2 peptide – Histone H3 dimethyl lysine-4 peptide, Enzo Life Sciences Amplex UltraRed, ThermoFisher Scientific
# To the assay buffer was added HRP/AMP in each well to concentrations equal to those in above, following which hydrogen peroxide solution (diluted from 3% hydrogen peroxide solution into a 20 mM stock) was added, in a 1 in 3 dilution series with final concentrations starting from 3 mM.
# Negative control wells contained either 100% buffer or as above with no hydrogen peroxide solution.
# [4] = LSD1 enzymatic activity, complex 50 nM, HRP assay, SP2509 value is mean of three sets, read-out: LSD1-HDAC1-CoREST IC50
# [5] = per parallel set, each set with SP2509 as reference standard, read-out: IC50 from dose response curves (Figure S1)
smiles,measurement,setting,value
COc1ccc(O)c(C(C)=NNC(=O)c2cccc(S(=O)(=O)N3CCOCC3)c2)c1 [compound 8],IC50,[1]; [4],14.5 nM
same,IC50,[1]; [5],15 nM
COc1ccc(O)c(C=NNC(=O)c2cccc(S(=O)(=O)N3CCOCC3)c2)c1 [compound 9],IC50,[1]; [4],12.8 nM
same,IC50,[1]; [5],13 nM
COc1ccc(C(C)=NNC(=O)c2cccc(S(=O)(=O)N3CCOCC3)c2)c(O)c1 [compound 10],IC50,[1]; [4],12.4 nM
same,IC50,[1]; [5],12 nM
CC(=NNC(=O)c1cccc(S(=O)(=O)N2CCN(C(=O)OC(C)(C)C)CC2)c1)c1cc(Cl)ccc1O [compound 11],IC50,"[1]; LSD1 enzymatic activity, complex 50 nM, HRP assay, read-out: LSD1-HDAC1-CoREST IC50",> 20000 nM
C/C(=N\NC(=O)c1cccc(S(=O)(=O)N2CCOCC2)c1)c1ccc(OCCOCCC(=O)OC(C)(C)C)cc1O [compound 12],IC50,[1]; [4],113 nM
C/C(=N\NC(=O)c1cccc(S(=O)(=O)N2CCOCC2)c1)c1cc(OCCOCCC(=O)OC(C)(C)C)ccc1O [compound 13],IC50,[1]; [4],159 nM
C/C(=N\NC(=O)c1cccc(S(=O)(=O)N2CCNCC2)c1)c1cc(Cl)ccc1O [compound 14],IC50,[1]; [4],20.6 nM
same,IC50,[1]; [5],21 nM
C/C(=N\NC(=O)c1cccc(S(=O)(=O)N2CCN(CCOCCC(=O)OC(C)(C)C)CC2)c1)c1cc(Cl)ccc1O [compound 15],IC50,[1]; [4],108 nM
C/C(=N\NC(=O)c1cccc(S(=O)(=O)N2CCOCC2)c1)c1cc(OCCOCCC(=O)N[C@H](C(=O)N2C[C@H](O)C[C@H]2C(=O)NCc2ccc(-c3scnc3C)cc2)C(C)(C)C)ccc1O [compound 25],H3K4me2 abundance,[2],no increase in H3K4me2
C/C(=N\NC(=O)c1cccc(S(=O)(=O)N2CCOCC2)c1)c1cc(OCCCC(=O)N[C@H](C(=O)N2C[C@H](O)C[C@H]2C(=O)NCc2ccc(-c3scnc3C)cc2)C(C)(C)C)ccc1O [compound 27],H3K4me2 abundance,[2],no increase in H3K4me2
C/C(=N\NC(=O)c1cccc(S(=O)(=O)N2CCOCC2)c1)c1cc(OCCCCCCCC(=O)N[C@H](C(=O)N2C[C@H](O)C[C@H]2C(=O)NCc2ccc(-c3scnc3C)cc2)C(C)(C)C)ccc1O [compound 28],H3K4me2 abundance,[2],no increase in H3K4me2
C/C(=N\NC(=O)c1cccc(S(=O)(=O)N2CCOCC2)c1)c1cc(OCCOCCC(=O)NCCNc2cccc3c2C(=O)N(C2CCC(=O)NC2=O)C3=O)ccc1O (stereo not shown) [compound 30],H3K4me2 abundance,[2],no increase in H3K4me2
Cc1ncsc1-c1ccc(CNC(=O)[C@@H]2C[C@@H](O)CN2C(=O)[C@@H](NC(=O)CCCCC(=O)NC2CC2c2ccccc2)C(C)(C)C)cc1 (stereo partly shown) [compound 38],LSD1 inhibition at 50 μM,[3]; complex 50 nM,modest inhibition
Cc1ncsc1-c1ccc(CNC(=O)[C@@H]2C[C@@H](O)CN2C(=O)[C@@H](NC(=O)CCCCCCCCCCC(=O)NC2CC2c2ccccc2)C(C)(C)C)cc1 (stereo partly shown) [compound 39],LSD1 inhibition at 50 μM,[3]; complex 50 nM,not LSD1 inhibitors
O=C(CCCCC(=O)NC1CC1c1ccccc1)NCCNc1cccc2c1C(=O)N(C1CCC(=O)NC1=O)C2=O (stereo not shown) [compound 40],LSD1 inhibition at 50 μM,[3]; complex 50 nM,not LSD1 inhibitors
O=C(CCCCCCCCCCC(=O)NC1CC1c1ccccc1)NCCNc1cccc2c1C(=O)N(C1CCC(=O)NC1=O)C2=O (stereo not shown) [compound 41],LSD1 inhibition at 50 μM,[3]; complex 50 nM,not LSD1 inhibitors
COC(=O)c1ccc([C@@H]2C[C@H]2N)cc1 [compound 55],IC50,"[3]; complex 50 nM, mean ± SD from three replicates",94 nM
same,enhancement in LSD1 inhibition compared to TCP,[3]; ratio of IC50 values,approximately 100 fold
